For this assay, the target named is T1, MC2R (Homo sapiens, UniProt Q01718).
T1 construct: purchased Promega (in-house HiBiT-GPCR construct library, NanoBRET)
Nature of the assay: NanoBRET screen HiBiT-MC2R in HEK293. Format: binding. As for the experimental part:
Each tracer candidate was screened across the entire library of HiBiT-GPCR constructs using NanoBRET as the detection modality. As depicted in Figure 4A, the specificity of interactions was evaluated through decrease in BRET due to competitive displacement of a bound tracer by excess parental compound. Each tracer was analyzed for binding to each HiBiT-GPCR fusion in the absence and in the presence of competing parental compound. Briefly, HEK293 cells were transfected with HiBiT-GPCR constructs diluted into promoterless DNA to reduce expression and maximize translocation to the cell surface. Each tracer candidate was then screened at concentrations of 1 μM and 0.1 μM across cells expressing these fusions. Cells were treated for 1.5 h with tracer either alone or in the presence of 20 μM competing parental compound (i.e., control). BRET was measured upon addition of purified LgBiT and subsequent complementation with HiBiT genetically fused to a GPCR. The specificity of interactions was assessed through a decrease in BRET signal due to competitive displacement of the bound tracer. To further gauge the robustness of these interactions, the fold response over the control (i.e., BRETtracer/BRETcontrol) was calculated. We chose a 1.5-fold response, which translates to ≥7-fold signal over noise as the minimal threshold required to score an interaction as positive.
HiBiT-GPCR DNA constructs were diluted in 10 mM Tris pH 8 to a final concentration of 0.01 μg/μL, arrayed in 96-well plates and stored at −20 °C. For transfection, HEK293 cells were suspended in Opti-MEM (without phenol red) supplemented with 2% fetal bovine serum (Seradigm) and 100 units/mL penicillin–streptomycin (Gibco) at a final concentration of 220,000 cells/mL and dispensed into white 96-well plates at 90 μL/well. Subsequent transfections and screens were carried using an Agilent Bravo Automated Liquid Handling Platform. First, the 96-well HiBiT DNA arrays were diluted 25-fold in Opti-MEM (without serum or phenol red) to a final concentration of 0.0004 μg/μL and 20 μL of the diluted DNAs were transferred into new 96-well plates. Next, promoterless carrier DNA (1 μg/μL) was diluted 25-fold (0.04 μg/μL) and then dispensed into the diluted arrays at 20 μL/well. Following brief mixing, Viafect transfection reagent (Promega) diluted 16-fold into Opti-MEM was dispensed into the plates at 40 μL/well. After mixing by pipetting, plates were incubated for 10 min on the pipetting station deck. The DNA-transfection reagent complexes were then added to plates containing cells. To facilitate the screen, 10 μL of DNA-transfection reagent complexes were added in duplicates to the top 4 and bottom 4 rows, resulting in two identical 48-well arrays per plate. Plates with transfected cells were incubated for 18–20 h at 37 °C/5% CO2. A screen of each tracer across the entire library using two different concentrations requires duplicate plates of transfected cells. Depending on the number of tracers being screened, transfections can be scaled up using the same ratios. The next day, for each tracer, four 20× screening solutions in tracer dilution buffer (Promega) were prepared: two duplicates at final concentration of 20 μM and two duplicates at a final concentration of 2 μM. […] The four resulting solutions were diluted 4-fold in Opti-MEM without serum or phenol red to generate 5× solutions (5 µM and 0.5 µM tracer +/− 100 μM competing compound). To screen the library, a BioTek MultiFlo FX liquid dispenser was used to dispense 22.5 µL of tracer solution to the top 4 rows and 22.5 µL tracer + competing compound solution to the 4 bottom rows. Plates were briefly mixed on an orbital shaker and incubated for 1.5 h at room temperature. […] Plates were briefly mixed on an orbital shaker and incubated for 15 min to allow complementation.
For orientation: BRET reads energy transfer from a luciferase to a nearby fluorophore.

T1 sequence (Q01718 whole entry): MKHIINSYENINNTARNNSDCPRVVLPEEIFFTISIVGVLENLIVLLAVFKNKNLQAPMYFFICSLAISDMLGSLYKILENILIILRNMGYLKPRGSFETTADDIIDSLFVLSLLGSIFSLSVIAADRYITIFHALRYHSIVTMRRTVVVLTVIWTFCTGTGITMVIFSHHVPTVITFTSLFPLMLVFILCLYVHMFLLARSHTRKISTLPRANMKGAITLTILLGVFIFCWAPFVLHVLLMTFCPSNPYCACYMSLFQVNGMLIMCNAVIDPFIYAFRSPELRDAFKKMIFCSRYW

`O=C(CCOCCOCCOCCOCCNC(=O)CCc1ccc2n1[B-](F)(F)[N+]1=C(c3ccc[nH]3)C=CC1=C2)NCCCN1CCN(C2=Nc3ccccc3Oc3ccc(Cl)cc32)CC1` [Loxapine-a-2-NB590]: the “NanoBRET Fold Response” value is listed as 0.99 (MC2R, tracer 0.1μM) and 1.11 (MC2R, tracer 1μM).
In the same order, the values of `CCCn1c(=O)c2[nH]c(-c3ccc(OCC(=O)NCCNC(=O)CCOCCNC(=O)c4ccc(CNC(=O)CCc5ccc6n5[B-](F)(F)[N+]5=C(c7ccc[nH]7)C=CC5=C6)cc4)cc3)nc2n(CCC)c1=O` [XAC-3-NB590] are 1.02 and 1.05.
As to `COc1ccccc1N1CCN(CCCCN2C(=O)c3ccc(CNC(=O)CCOCCOCCOCCOCCNC(=O)CCc4ccc5n4[B-](F)(F)[N+]4=C(c6ccc[nH]6)C=CC4=C5)cc3C2=O)CC1` [NAN-190-2-NB590], the “NanoBRET Fold Response” value (MC2R, tracer 0.1μM) is 0.96.
Turning to `O=C(CCc1ccc2n1[B-](F)(F)[N+]1=C(c3ccc[nH]3)C=CC1=C2)NCc1ccc(C(=O)NCCOCCOCCNCC(O)COc2cccc3ccccc23)cc1` (stereo not drawn) [Propranolol-3-NB590], the “NanoBRET Fold Response” value (MC2R, 1μM) is on record as 1.03.
As to `COc1ccccc1N1CCN(CCCCN2C(=O)c3ccc(CNC(=O)CCOCCNC(=O)c4ccc(CNC(=O)CCc5ccc6n5[B-](F)(F)[N+]5=C(c7ccc[nH]7)C=CC5=C6)cc4)cc3C2=O)CC1` [NAN-190-3-NB590], the “NanoBRET Fold Response” value came out at 1.02 (MC2R, tracer 0.1μM) and 0.96 (MC2R, tracer 1μM).
`O=C(CCc1ccc2n1[B-](F)(F)[N+]1=C(c3ccc[nH]3)C=CC1=C2)NCc1ccc(C(=O)NCCOCCC(=O)N[C@@H]2CC[C@@]3(O)[C@H]4Cc5ccc(O)c6c5[C@@]3(CCN4CC3CC3)[C@H]2O6)cc1` [Naltrexone-3-NB590]: the “NanoBRET Fold Response” value worked out at 0.75 (MC2R, tracer 0.1μM) and 1.15 (MC2R, tracer 1μM).
For `CCOC(=O)c1cc(C#N)c(N2CCC(C(=O)NS(=O)(=O)Cc3ccccc3/C=C/C(=O)NCCNC(=O)CCc3ccc4n3[B-](F)(F)[N+]3=C(c5ccc[nH]5)C=CC3=C4)CC2)nc1C` [AZD1283-1-NB590], the “NanoBRET Fold Response” value (MC2R, 0.1μM) was determined as 0.94 and the “NanoBRET Fold Response” value (MC2R, 1μM) was found to be 1.02.
With `COc1ccc2[nH]c(-c3ccc(CNC(=O)CCOCCOCCOCCOCCNC(=O)CCc4ccc5n4[B-](F)(F)[N+]4=C(c6ccc[nH]6)C=CC4=C5)cc3)c(CCNC(C)=O)c2n1` [AzomelatoninICO9-2-NB590], the “NanoBRET Fold Response” value reads like this: (0.1μM tracer) 0.93; (1μM tracer) 1.16.
As to `CC(C)N(CC[C@H](c1ccccc1)c1cc(CCNC(=O)CCOCCOCCOCCOCCNC(=O)CCc2ccc3n2[B-](F)(F)[N+]2=C(c4ccc[nH]4)C=CC2=C3)ccc1O)C(C)C` [Tolterodine-2-NB590], the “NanoBRET Fold Response” value by setting is: (MC2R, tracer 0.1μM) 1.08; (MC2R, tracer 1μM) 1.10.
In the case of `CN1CCN(C2=Nc3cc(Cl)ccc3N(CC(=O)NCCOCCOCCOCCOCCNC(=O)CCc3ccc4n3[B-](F)(F)[N+]3=C(c5ccc[nH]5)C=CC3=C4)c3ccccc32)CC1` [Clozapine-c-2-NB590], the “NanoBRET Fold Response” value runs as follows: (MC2R, 0.1μM tracer) 0.99; (MC2R, 1μM tracer) 1.11.
Consider `N#CN=C(NCCCOc1cccc(CN2CCCCC2)c1)NCCNC(=O)CCOCCOCCOCCOCCNC(=O)CCc1ccc2n1[B-](F)(F)[N+]1=C(c3ccc[nH]3)C=CC1=C2` [Aminopotentidine-2-NB590], for which the “NanoBRET Fold Response” value reads like this: (MC2R, tracer 0.1μM) 0.97; (MC2R, tracer 1μM) 0.92.
For the compound `COc1ccc2c(n1)c(CCNC(C)=O)cn2CCNC(=O)CCc1ccc2n1[B-](F)(F)[N+]1=C(c3ccc[nH]3)C=CC1=C2` [Azamelatonin-1-NB590], the “NanoBRET Fold Response” value is recorded as 0.89 (0.1μM tracer) and 1.03 (1μM tracer).
As to `CC(C)N(CC[C@H](c1ccccc1)c1cc(CCNC(=O)c2ccc(CNC(=O)CCc3ccc4n3[B-](F)(F)[N+]3=C(c5ccc[nH]5)C=CC3=C4)cc2)ccc1O)C(C)C` [Tolterodine-BZ-NB590], the “NanoBRET Fold Response” value (MC2R, tracer 0.1μM) is 0.88 and the “NanoBRET Fold Response” value (MC2R, tracer 1μM) is reported as 1.06.
With `O=C(CCc1ccc2n1[B-](F)(F)[N+]1=C(c3ccc[nH]3)C=CC1=C2)NCCOCCOCCNC(=O)OCCOCCN1CCN(C2=Nc3ccccc3Sc3ccccc32)CC1` [Quetiapine-a-2-NB590], the “NanoBRET Fold Response” value reads like this: (MC2R, tracer 0.1μM) 0.98; (MC2R, tracer 1μM) 0.95.
On the same counts, the results for `Cc1cc2c(s1)Nc1ccccc1N=C2N1CCN(CCCNC(=O)CCOCCOCCOCCOCCNC(=O)CCc2ccc3n2[B-](F)(F)[N+]2=C(c4ccc[nH]4)C=CC2=C3)CC1` [Olanzapine-a-2-NB590] are 0.98 and 1.21.
`CN(C)CCC=C1c2ccccc2CCc2ccc(C(=O)NCCNC(=O)CCOCCOCCOCCOCCNC(=O)CCc3ccc4n3[B-](F)(F)[N+]3=C(c5ccc[nH]5)C=CC3=C4)cc21` [Amitriptyline-b-2-NB590]: the “NanoBRET Fold Response” value was 1.00 (tracer at 0.1μM) and 1.02 (tracer at 1μM).
As to `O=C(CCOCCOCCOCCOCCNC(=O)CCc1ccc2n1[B-](F)(F)[N+]1=C(c3ccc[nH]3)C=CC1=C2)NCCCN1CCN(C2=Nc3cc(Cl)ccc3Nc3ccccc32)CC1` [Clozapine-a-2-NB590], the “NanoBRET Fold Response” value was found to be 0.97 (MC2R, 0.1μM tracer) and 0.97 (MC2R, 1μM tracer).
For the compound `CN1CCN(C2=Nc3cc(Cl)ccc3Nc3ccc(CNC(=O)CCOCCOCCOCCOCCNC(=O)CCc4ccc5n4[B-](F)(F)[N+]4=C(c6ccc[nH]6)C=CC4=C5)cc32)CC1` [Clozapine-b-2-NB590], the “NanoBRET Fold Response” value is, setting by setting: (MC2R, 0.1μM tracer) 1.02; (MC2R, 1μM tracer) 1.00.
With `Cc1nc2n(c(=O)c1CCN1CCC(c3noc4cc(F)ccc34)CC1)CCCC2OC(=O)NCCOCCOCCOCCOCCNC(=O)CCc1ccc2n1[B-](F)(F)[N+]1=C(c3ccc[nH]3)C=CC1=C2` (stereo not drawn) [Risperidone-2-NB590], the “NanoBRET Fold Response” value (MC2R, tracer 0.1μM) turned out to be 1.04 and the “NanoBRET Fold Response” value (MC2R, tracer 1μM) was 1.06.

Values taken from PMC8151276, “An Integrated Approach toward NanoBRET Tracers for Analysis of GPCR Ligand Engagement” (Molecules, 2021).
